# Patent US12606541B2, “PPARg modulators and methods of use” (Eisai R&D Management Co., Ltd., priority 2020, dated 2026)
# Target: T1, His6-TEV-PPARγ-(234-505) (Homo sapiens, UniProt P37231)
# T1 construct: The His6-TEV-PPARγ-(234-505) protein for assay was expressed and purified; TEV cleavage site (N); made in house
# T1 sequence (P37231 234-505): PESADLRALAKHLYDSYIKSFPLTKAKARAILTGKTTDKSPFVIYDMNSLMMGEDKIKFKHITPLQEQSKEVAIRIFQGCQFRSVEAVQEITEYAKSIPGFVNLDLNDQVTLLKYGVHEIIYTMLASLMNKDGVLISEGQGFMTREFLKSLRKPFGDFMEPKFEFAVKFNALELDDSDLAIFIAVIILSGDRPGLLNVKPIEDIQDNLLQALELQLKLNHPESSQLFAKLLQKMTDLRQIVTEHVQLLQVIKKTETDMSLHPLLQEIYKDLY
# Assay: TR-FRET Assay to Measure Co-R Peptide Recruitment to PPARγ
# Type: biochemical
# Details: Co-R peptide recruitment to PPARγ; read-out: TR-FRET AC50
# Protocol: TR-FRET Assay to Measure Co—R Peptide Recruitment to PPARγ
# The 2× detection solution contained anti-6×His-Terbium antibody (CisBio) and FITC labeled Co—R peptide (SMRT-ID2 from New England Peptide) at final concentrations of 5 and 200 nM respectively.
# In these assay plates, the positive control in column 24 contained 500 nM (final) T0070907 and the negative control in column 23 contained an identical volume of DMSO. Then, 5 μL of 2+ protein working stock or controls were added to the plate and incubated for 20 minutes at room temperature. Reagents additions were performed with either a Combi (Thermo) or Mantis (Formulatory) pipetting device. The incubation was followed by addition of 5 μL of the 2× detection solution. Plates were covered, centrifuged, and incubated for an additional hour. The TR-FRET data was recorded with an Envision plate reader (Perkin Elmer), using settings recommended by Thermo Fisher. The TR-FRET signal of the positive and negative control's recruitment of FITC-Co—R peptide was used to normalize the TR-FRET signal to percent response and to determine the assay Z prime. Experiments were performed in triplicate and analyzed in GraphPad Prism 7.
row,SMILES,AC50 [nM]
1,CNC(=O)CN1CCN(C(=O)C2CCN(C(=O)c3cc(-c4ccncc4)[nH]n3)CC2)CC1 [N-methyl-2-(4-{1-[5-(pyridin-4-yl)-1H-pyrazole-3-carbonyl]piperidine-4-carbonyl}piperazin-1-yl)acetamide],> 1000
2,O=C(c1cc(-c2ccncc2)[nH]n1)N1CCC(C(=O)N2CC[C@@H](O)C2)CC1 [(3R)-1-{1-[5-(pyridin-4-yl)-1H-pyrazole-3-carbonyl]piperidine-4-carbonyl}pyrrolidin-3-ol],> 1000
3,"COc1cc(-c2cc(C(=O)N3CCC(C(=O)NC4COC(C)OC4)CC3)n[nH]2)c(F)cn1 (centres unmarked) [1-[5-(5-fluoro-2-methoxypyridin-4-yl)-1H-pyrazole-3-carbonyl]-N-(2-methyl-1,3-dioxan-5-yl)piperidine-4-carboxamide]",> 1000
4,COc1cc(-c2cc(C(=O)N3CCC(C(=O)N[C@H]4CC[C@@](C)(O)CC4)CC3)n[nH]2)c(Cl)cn1,> 1000
5,COc1cc(-c2cc(C(=O)N3CCC(C(=O)NCc4cc(Cl)ccn4)CC3)n[nH]2)c(Cl)cn1 [1-[5-(5-chloro-2-methoxypyridin-4-yl)-1H-pyrazole-3-carbonyl]-N-[(4-chloropyridin-2-yl)methyl]piperidine-4-carboxamide],> 1000
6,"COc1cc(-c2cc(C(=O)N3CCC(C(=O)NCc4nnc5ccccn45)CC3)n[nH]2)c(Cl)cn1 [1-[5-(5-chloro-2-methoxypyridin-4-yl)-1H-pyrazole-3-carbonyl]-N-({[1,2,4]triazolo[4,3-a]pyridin-3-yl}methyl)piperidine-4-carboxamide]",> 1000
7,COc1cc(-c2cc(C(=O)N3CCC(C(=O)NC45COC(C)(C4)C5)CC3)n[nH]2)c(Cl)cn1,> 1000
8,COc1cc(-c2cc(C(=O)N3CCC(CO)(C(=O)NCc4cccc(Cl)c4)CC3)n[nH]2)c(Cl)cn1 [1-[5-(5-chloro-2-methoxypyridin-4-yl)-1H-pyrazole-3-carbonyl]-N-[(3-chlorophenyl)methyl]-4-(hydroxymethyl)piperidine-4-carboxamide],> 1000
9,CC1CCC(NC(=O)C2CCN(C(=O)c3cc(-c4ccncn4)[nH]n3)CC2)CC1 (centres unmarked) [N-(4-methylcyclohexyl)-1-[5-(pyrimidin-4-yl)-1H-pyrazole-3-carbonyl]piperidine-4-carboxamide],> 1000
10,"COc1cc(-c2cc(C(=O)N3CCC(C(=O)NCc4c(C)nc5cc(=O)[nH]n5c4C)CC3)n[nH]2)c(Cl)cn1 [1-[5-(5-chloro-2-methoxypyridin-4-yl)-1H-pyrazole-3-carbonyl]-N-({5,7-dimethyl-2-oxo-1H,2H-pyrazolo[1,5-a]pyrimidin-6-yl}methyl)piperidine-4-carboxamide]",> 1000
11,COc1cc(-c2cc(C(=O)N3CCC(C(=O)NCc4ncccn4)CC3)n[nH]2)c(Cl)cn1 [1-[5-(5-chloro-2-methoxypyridin-4-yl)-1H-pyrazole-3-carbonyl]-N-[(pyrimidin-2-yl)methyl]piperidine-4-carboxamide],> 1000
12,COc1cc(-c2cc(C(=O)N3CCC(C(=O)NCc4ccccc4C(F)(F)F)CC3)n[nH]2)c(Cl)cn1 [1-[5-(5-chloro-2-methoxypyridin-4-yl)-1H-pyrazole-3-carbonyl]-N-{[2-(trifluoromethyl)phenyl]methyl}piperidine-4-carboxamide],> 1000
13,"COc1cc(-c2cc(C(=O)N3CCC(C(=O)Nc4noc5cccc(F)c45)CC3)n[nH]2)c(Cl)cn1 [1-[5-(5-chloro-2-methoxypyridin-4-yl)-1H-pyrazole-3-carbonyl]-N-(4-fluoro-1,2-benzoxazol-3-yl)piperidine-4-carboxamide]",> 1000
14,"COc1cc(-c2cc(C(=O)N3CCC(C(=O)NC4CCCc5[nH]c(=O)ccc54)CC3)n[nH]2)c(Cl)cn1 (centres unmarked) [1-[5-(5-chloro-2-methoxypyridin-4-yl)-1H-pyrazole-3-carbonyl]-N-(2-oxo-1,2,5,6,7,8-hexahydroquinolin-5-yl)piperidine-4-carboxamide]",> 1000
15,COc1cc(-c2cc(C(=O)N3CCC(C(=O)NC45CC(C4)C5)CC3)n[nH]2)c(Cl)cn1 [N-{bicyclo[1.1.1]pentan-1-yl}-1-[5-(5-chloro-2-methoxypyridin-4-yl)-1H-pyrazole-3-carbonyl]piperidine-4-carboxamide],> 1000
16,"COc1cc(-c2cc(C(=O)N3CCC(C(=O)NCc4cc(C)on4)CC3)n[nH]2)c(Cl)cn1 [1-[5-(5-chloro-2-methoxypyridin-4-yl)-1H-pyrazole-3-carbonyl]-N-[(5-methyl-1,2-oxazol-3-yl)methyl]piperidine-4-carboxamide]",> 1000
17,O=C(c1cc(-c2ccncc2)[nH]n1)N1CCC(C(=O)N2CCC(c3ccccc3)CC2)CC1 [4-{3-[4-(4-phenylpiperidine-1-carbonyl)piperidine-1-carbonyl]-1H-pyrazol-5-yl}pyridine],> 1000
18,"COc1cc(-c2cc(C(=O)N3CC[C@@H](C(=O)NC4CC[C@H](C(F)(F)F)N(C)C4)CC34CC4)n[nH]2)c(F)cn1 (mixture of isomers) [(7R)-4-[5-(5-fluoro-2-methoxypyridin-4-yl)-1H-pyrazole-3-carbonyl]-N-[(3RS,6R)-1-methyl-6-(trifluoromethyl)piperidin-3-yl]-4-azaspiro[2.5]octane-7-carboxamide]",> 1000
19,COc1cc(-c2cc(C(=O)N3CCC(C(=O)NC4CCC(O)C4)CC3)n[nH]2)c(Cl)cn1 (centres unmarked) [1-[5-(5-chloro-2-methoxypyridin-4-yl)-1H-pyrazole-3-carbonyl]-N-(3-hydroxycyclopentyl)piperidine-4-carboxamide],> 1000
20,COc1cc(-c2cc(C(=O)N3CCC(C(=O)NC4CCCCO4)CC3)n[nH]2)c(F)cn1 (centres unmarked) [1-[5-(5-fluoro-2-methoxypyridin-4-yl)-1H-pyrazole-3-carbonyl]-N-(oxan-2-yl)piperidine-4-carboxamide],> 1000
21,CC1CCC(NC(=O)C2CCN(C(=O)c3cc(-c4ccnc(C5CC5)c4)[nH]n3)CC2)CC1 (centres unmarked) [1-[5-(2-cyclopropylpyridin-4-yl)-1H-pyrazole-3-carbonyl]-N-(4-methylcyclohexyl)piperidine-4-carboxamide],> 1000

# Second part, the compound after the results:
row,AC50 [nM],SMILES
1,> 1000,"CC(C)(C)CNC(=O)C1CCN(C(=O)c2cc(-c3ccncc3)[nH]n2)CC1 [N-(2,2-dimethylpropyl)-1-[5-(pyridin-4-yl)-1H-pyrazole-3-carbonyl]piperidine-4-carboxamide]"
2,> 1000,O=C(O)COc1cc(NC(=O)C2CCN(C(=O)c3cc(-c4ccncc4)[nH]n3)CC2)ccc1Cl [2-(2-chloro-5-{1-[5-(pyridin-4-yl)-1H-pyrazole-3-carbonyl]piperidine-4-amido}phenoxy)acetic acid]
3,> 1000,"O=C(c1cc(-c2ccncc2)[nH]n1)N1CCC(C(=O)N2CCc3ccccc3C2)CC1 [2-{1-[5-(pyridin-4-yl)-1H-pyrazole-3-carbonyl]piperidine-4-carbonyl}-1,2,3,4-tetrahydroisoquinoline]"
4,> 1000,COc1ccnc(NC(=O)C2CCN(C(=O)c3cc(-c4ccncc4)[nH]n3)CC2)c1 [N-(4-methoxypyridin-2-yl)-1-[5-(pyridin-4-yl)-1H-pyrazole-3-carbonyl]piperidine-4-carboxamide]
5,> 1000,"COc1cccc(OC)c1CNC(=O)C1CCN(C(=O)c2cc(-c3ccncc3)[nH]n2)CC1 [N-[(2,6-dimethoxyphenyl)methyl]-1-[5-(pyridin-4-yl)-1H-pyrazole-3-carbonyl]piperidine-4-carboxamide]"
6,> 1000,CC(C)(C)c1ccc(CNC(=O)C2CCN(C(=O)c3cc(-c4ccncc4)[nH]n3)CC2)cn1 [N-[(6-tert-butylpyridine-3-yl)methyl]1-[5-(pyridin-4-yl)-1H-pyrazole-3-carbonyl]piperidine-4-carboxamide]
7,> 1000,"COc1nc(C)cc(C)c1CNC(=O)C1CCN(C(=O)c2cc(-c3ccncc3)[nH]n2)CC1 [N-[(2-methoxy-4,6-dimethylpyridin-3-yl)methyl]-1-[5-(pyridin-4-yl)-1H-pyrazole-3-carbonyl]piperidine-4-carboxamide]"
8,> 1000,"CC(C)(C)c1csc(CNC(=O)C2CCN(C(=O)c3cc(-c4ccncc4)[nH]n3)CC2)n1 [N-[(4-tert-butyl-1,3-thiazol-2-yl)methyl]-1-[5-(pyridin-4-yl)-1H-pyrazole-3-carbonyl]piperidine-4-carboxamide]"
9,> 1000,"O=C(NCc1nc(C2CC2)cs1)C1CCN(C(=O)c2cc(-c3ccncc3)[nH]n2)CC1 [N-[(4-cyclopropyl-1,3-thiazol-2-yl)methyl]-1-[5-(pyridin-4-yl)-1H-pyrazole-3-carbonyl]piperidine-4-carboxamide]"
10,> 1000,COc1ccc(CNC(=O)C2CCN(C(=O)c3cc(-c4ccncc4)[nH]n3)CC2)cc1 [N-[(4-methoxyphenyl)methyl]-1-[5-(pyridin-4-yl)-1H-pyrazole-3-carbonyl]piperidine-4-carboxamide]
11,> 1000,"O=C(Nc1ncco1)C1CCN(C(=O)c2cc(-c3ccncc3)[nH]n2)CC1 [N-(1,3-oxazol-2-yl)-1-[5-(pyridin-4-yl)-1H-pyrazole-3-carbonyl]piperidine-4-carboxamide]"
